Where a name gives a salt, the structure may show the parent alone. Read-outs that look alike come from different tables or passages of the source.
Tested on: Xenopus embryos
Conditions: for Type of edema Ventral: ‡ = edemas also detected in the gut; for Type of edema Periocular: * = causing bulging eyes, # = bilateral, causing narrow-set eyes
Experimental: 10-μl aliquots of the chemicals were transferred from the mother plates with a liquid handling robot (Aquarius, Tecan) into 96-well tissue culture plates to generate diluted stock plates (2 mM in DMSO; 50 μl final volume). […] Once embryos reached stage 31 (37 hpf), 10-μl aliquots of the diluted chemicals were added to the wells. […] Negative control wells contained embryos in screening medium and 0.1×MMR only. Embryos were treated with the chemicals in a humidified incubator at 23° C. over a timeframe of 4 days. Embryos were manually scored for the presence of edema or other morphological phenotypes using a teaching dissecting microscope (SV6; Carl Zeiss). Two investigators performed separately the scoring daily at stages 39 (56 hpf), 41 (76 hpf), 45 (98 hpf), and 47 (120 hpf). Dead embryos were removed and 100 μl of water was added daily to each well to compensate for fluid evaporation. […] For imaging at the end of the experiments. Xenopus tadpoles were anesthetized with 0.05% tricaine (Sigma #A5040) in 0.1×MMR. Images were captured using a stereomicroscope (SteREO Lumar V12; Carl Zeiss) equipped with a digital camera (AxioCam Color; Carl Zeiss).
Xenopus late tailbud embryos at stage 31 (37 hpf) were selected for compound treatment. […] Embryos were arrayed into 48-well dishes (five per well) and treated with test compounds at a concentration of 20 μM in the presence of 1% DMSO. […] All 48-well dishes also contained replicates of negative controls (1% DMSO). Embryos were monitored daily over a period of four days for edema formation. In addition, drug-induced lethality and other externally visible phenotypes were scored. On average, 320 compounds were screened per week.

[1] = compounds causing lethality, 20 μM, 1% DMSO, treatment from stage 31, Nieuwkoop & Faber stage
[2] = compounds causing cytotoxicity, 20 μM, 1% DMSO, treatment from stage 31, Nieuwkoop & Faber stage
[3] = compounds causing edema, 20 μM, 1% DMSO, treatment from stage 31, scored to stage 47
[4] = onset of edema, 20 μM, 1% DMSO, treatment from stage 31, Nieuwkoop & Faber stage
[5] = embryonic stage, — = no stage of lethality given
[6] = onset of pigmentation defects, 20 μM, 1% DMSO
[7] = compounds causing other phenotypic defects, 20 μM, scored to stage 47
[8] = onset of other phenotypic defects, 20 μM, 1% DMSO

CC(C)Cc1ccc(C(C)C(=O)O)cc1 (racemic) [(±)-Ibuprofen, alpha-Methyl-4-(isobutyl)phenylacetic acid]
Lethality (NF) (Xenopus laevis, in vivo): 45 NF

O=C(O)CCCCC1CCSS1 (racemic) [(±)-alpha-Lipoic Acid]
Type of edema Pericordial (embryonic stage): 39 embryonic stages according to Nieuwkoop and Faber (NF) | Type of edema Pronephric (embryonic stage): 42 embryonic stages according to Nieuwkoop and Faber (NF)

CCCCCCCCCCCCCCCCCC(=O)OC(CC(=O)O)C[N+](C)(C)C.[Cl-] (racemic) [DL-Stearoylcarnitine chloride]
Lethality (NF) [1]: 41 NF

CCCCCCCCCCCCCCCC(=O)OC(CC(=O)O)C[N+](C)(C)C.[Cl-] (racemic) [Palmitoyl-DL-Carnitine chloride]
Lethality (NF) [2]: 32 NF

CCCCCCCCCCCCCCCC(=O)NCC(COP(=O)([O-])OCC[N+](C)(C)C)OCC (racemic) [rac-2-Ethoxy-3-hexadecanamido-1-propylphosphocholine]
Lethality (NF) [2]: 32 NF

CCCCCCCCCCCCCCCCCC(=O)NCC(COP(=O)([O-])OCC[N+](C)(C)C)OCC (racemic) [rac-2-Ethoxy-3-octadecanamido-1-propylphospocholine]
Lethality (NF) [2]: 32 NF

O.c1cnc2c(c1)ccc1cccnc12 [1,10-Phenanthroline monohydrate]
Lethality (NF) [3]: 46 NF | Onset (NF) [4]: 39/40

O.c1cnc2c(c1)ccc1cccnc12 [1,10-Phenenthroline monohydrate]
Type of edema Pericordial (embryonic stage): 39/40 | Lethality [5]: 46 embryonic stages according to Nieuwkoop and Faber (NF) | Type of edema Ventral (embryonic stage): 41/42

S=C(Nc1ccccc1)Nc1nccs1 [1-Phenyl-3-(2-thiazolyl)-2-thiourea]
Onset (NF) [6]: 33/34

COC1=C(OC)C(=O)c2ccccc2C1=O [2,3-Dimethoxy-1,4-naphthoquinone]
Lethality (NF) [7]: 42 NF

C[N+](C)(C)CCC(=O)c1cccc2ccccc12.[I-] [2-(alpha-Naphthoyl)ethyltrimethylammonium iodide]
Lethality (NF) [2]: 32 NF

N#CCCN.N#CCCN.O=C(O)/C=C/C(=O)O [3-Aminopropionitrile fumarate]
Onset (NF) [8]: 46 NF

O=C(O)c1cc([N+](=O)[O-])ccc1NCCCc1ccccc1 [5-Nitro-2-(3-phenylpropylamino)benzoic acid]
Lethality (NF) [2]: 32 NF

O=c1[nH]c2ccccc2c2ccccc12 [6(5H-Phenanthridinone, 6(5H)-Phenanthridinone]
Lethality (NF) [3]: 47 NF | Type of edema Pericordial (embryonic stage): 45 embryonic stages according to Nieuwkoop and Faber (NF) | Type of edema Periocular (embryonic stage): 45 embryonic stages according to Nieuwkoop and Faber (NF) | Lethality [5]: 47 embryonic stages according to Nieuwkoop and Faber (NF) | Type of edema Ventral (embryonic stage): 45 embryonic stages according to Nieuwkoop and Faber (NF)

CC1=C(/C=C/C(C)=C/C=C/C(C)=C\C(=O)O)C(C)(C)CCC1 [13-cis-retinoic acid]
Lethality (NF) [3]: 46 NF | Type of edema Pronephric (embryonic stage): 45 embryonic stages according to Nieuwkoop and Faber (NF) | Type of edema Cerebral (embryonic stage, + = cerebral edema extending dorso-anteriorly and displacing the eyes): 45+ embryonic stages according to Nieuwkoop and Faber (NF) | Lethality [5]: 46 embryonic stages according to Nieuwkoop and Faber (NF) | Type of edema Ventral (embryonic stage): 41/42 | Onset (NF) [4]: 41/42

CC[C@@H]1Cc2cc(O)ccc2C2=C1c1ccc(O)cc1C[C@H]2CC [(5R, 11R)-5,11-Diethyl-5,6,11,12-tetrahydro-2,8-chrysenediol]
Lethality (NF) [1]: 41 NF

CN[C@@H](C)[C@H](O)c1ccccc1.CN[C@@H](C)[C@H](O)c1ccccc1.O=S(=O)(O)O [(-)-Ephedrine hemisulfate]
Onset (NF) [6]: 33/34

CS(=O)(=O)O.Cc1c(C(=O)c2cccc3ccccc23)c2cccc3c2n1[C@H](CN1CCOCC1)CO3 [(R)-(+)-WIN 55,212-2 mesylate, (R)-(+)-[2,3-Dihydro-5-methyl-3[(morpholinyl)methyl]pyrrolo[1,2,3-de]-1,4-benzoxazinyl]-(1-naphthalenyl)methanone mesylate]
Lethality (NF) [2]: 32 NF

CC[C@@]1(O)C(=O)OCc2c1cc1n(c2=O)Cc2cc3ccccc3nc2-1 [(S)-(+)-Camptothecin]
Lethality (NF) [7]: 41/42 | Onset (NF) [8]: 39 NF

CCn1cc(C(=O)O)c(=O)c2ccc(Cc3ccccc3)nc21 [Amfonelic acid, 7-Benzyl-1-ethyl-1,4-dihydro-4-oxo-1,8-naphthyridine-3-carboxylic acid]
Onset (NF) [6]: 33/34

CCNC(=O)N1CCN(CCCC(c2ccc(F)cc2)c2ccc(F)cc2)CC1.Cl [Amperozide hydrochloride, 4-[4,4-bis(4-Fluorophenyl)butyl]-N-ethyl-1-piperazinecarboxamide hydrochloride]
Type of edema Pericordial (embryonic stage): 41/42 | Type of edema Periocular (embryonic stage): 45 embryonic stages according to Nieuwkoop and Faber (NF) | Type of edema Ventral (embryonic stage): 41/42 | Onset (NF) [4]: 41/42

CN1CCc2cccc3c2[C@H]1Cc1ccc(O)c(O)c1-3 [Apomorphine hydrochloride hemihydrate, 10,11-Dihydroxyaporphine hydrochloride hemihydrate]
Onset (NF) [6]: 33/34

CC(C)(C)c1ccc(S(=O)(=O)/C=C/C#N)cc1 [Bay 11-7085, (E)-3-(4-t-Butylphenylsulfortyl)-2-propenenitrile]
Lethality (NF) [2]: 32 NF

C[C@H]1CCC/C=C/[C@@H]2C[C@H](O)C[C@H]2[C@H](O)/C=C/C(=O)O1 [Brefeldin A]
Lethality (NF) [2]: 33/34

Nc1nc2ccc(Cl)cc2c2nc(-c3ccco3)nn12 [CGS -15943]
Type of edema Pericordial (embryonic stage): 41/42 | Type of edema Pronephric (embryonic stage): 45 embryonic stages according to Nieuwkoop and Faber (NF) | Type of edema Ventral (embryonic stage): 45 embryonic stages according to Nieuwkoop and Faber (NF) | Lethality (in vivo): 46 embryonic stages according to Nieuwkoop and Faber (NF)

Nc1nc2ccc(Cl)cc2c2nc(-c3ccco3)nn12 [CGS-15943, 9-Chloro-2-(2-furyl)[1,2,4]triazolo[1,5-c]quinazolin-5-amine]
Lethality (NF) (Xenopus laevis, in vivo): 46 NF | Onset (NF) (in vivo): 41/42

O=C(/C=C/c1ccc(O)c(O)c1)OCCc1ccccc1 [Caffeic acid phenethyl ester]
Lethality (NF) (compounds causing pigmentation defects, 20 μM, scored to stage 47): 39 NF | Onset (NF) [6]: 33/34

CNc1ccc2oc(C[C@H]3O[C@@]4(CC[C@H]3C)O[C@H]([C@H](C)C(=O)c3ccc[nH]3)[C@H](C)C[C@H]4C)nc2c1C(=O)O [Calcimycin]
Lethality (NF) [2]: 32 NF

CC1(C(=O)O)C2CCC(O2)C1(C)C(=O)O (stereo not drawn) [Cantharidic Acid]
Lethality (NF) [2]: 32 NF

C[C@@]12C(=O)OC(=O)[C@]1(C)[C@H]1CC[C@@H]2O1 [Cantharidin]
Lethality (NF) [2]: 32 NF

CN1CCC[C@@H]1CCO[C@](C)(c1ccccc1)c1ccc(Cl)cc1 [Clemastine fumarate]
Type of edema Pericordial (embryonic stage): 46 embryonic stages according to Nieuwkoop and Faber (NF) | Type of edema Periocular (embryonic stage): 46 embryonic stages according to Nieuwkoop and Faber (NF) | Type of edema Ventral (embryonic stage): 45 embryonic stages according to Nieuwkoop and Faber (NF)

S=C(OC1CC2CC1C1CCCC21)[S][K] [D-609 potassium, Carbonodithioic acid, O-(octahydro-4,7-methano-1H-inden-5-yl) ester potassium]
Lethality (NF) [2]: 33/34

O=c1c2ccccc2[nH]c(=S)n1CCN1CCC(=C(c2ccc(F)cc2)c2ccc(F)cc2)CC1 [Diacylglycerol Kinase Inhibitor II]
Type of edema Pronephric (embryonic stage): 45 embryonic stages according to Nieuwkoop and Faber (NF) | Type of edema Periocular (embryonic stage): 46 embryonic stages according to Nieuwkoop and Faber (NF) | Type of edema Ventral (embryonic stage): 41/42 | Onset (NF) [4]: 41/42

Cc1nc2sccn2c(=O)c1CCN1CCC(=C(c2ccccc2)c2ccc(F)cc2)CC1 [Diacylglycerol kinase inhibitor I]
Type of edema Periocular (embryonic stage): 45 embryonic stages according to Nieuwkoop and Faber (NF) | Type of edema Ventral (embryonic stage): 45 embryonic stages according to Nieuwkoop and Faber (NF) | Onset (NF) [4]: 45 NF
